Test results taken from patent EP4549575A1 (priority 2023, dated 2025).
Entries after “also recorded” stand apart in the source; their conditions may differ. Square brackets hold non-standard residues; d marks the D form. Peptide text beside a SMILES is read from it. * marks the point of attachment. hCys = N[C@@H](CCS)C(=O)O; βAla = NCCC(=O)O; CF3 = FC(F)(F)*

tested on: P. infestans; assay: not given; type: cell-based; settings: 200 µM; P. infestans mycelium; peptidomimetics

Compound	PPI (%) ± Std. Dev.
CC(C)C[C@H](NC(=O)[C@H](CCSC(F)(F)F)NC(=O)[C@H](Cc1c[nH]c2ccccc12)NC(=O)[C@H](CCCNC(=N)N)NC(=O)CCN)C(=O)N[C@H](C(=O)N[C@@H](Cc1ccc(O)cc1)C(=O)N[C@@H](CCCNC(=N)N)C(=O)N[C@@H](CCCNC(=N)N)C(N)=O)C(C)C [LR131, H2N-βA-RW-MCF3-LVYRR-CONH2] (H-[βAla]RW[hCys](CF3)LVYRR-NH2)	85.32 ± 5.19 (b) %
CSCC[C@H](NC(=O)[C@@H](Cc1c[nH]c2ccccc12)NC(=O)[C@@H](CCCNC(=N)N)NC(=O)CCN)C(=O)N[C@@H](CC(C)C)C(=O)N[C@H](C(=O)N[C@H](Cc1ccc(O)cc1)C(=O)N[C@@H](CCCNC(=N)N)C(=O)N[C@H](CCCNC(=N)N)C(N)=O)C(C)C [LR202, H2N-βA-(D)R-(D)W-MLV-(D)Y-R-(D)R-CONH2] (H-[βAla][dR][dW]MLV[dY]R[dR]-NH2)	78.26 ± 0 (b) %
CSCC[C@H](NC(=O)[C@@H](Cc1c[nH]c2ccccc12)NC(=O)[C@@H](CCCNC(=N)N)NC(=O)CCN)C(=O)N[C@@H](CC(C)C)C(=O)N[C@H](C(=O)N[C@H](Cc1ccc(O)cc1)C(=O)N[C@@H](CCCNC(=N)N)C(=O)N[C@@H](CCCNC(=N)N)C(N)=O)C(C)C [LR206, H2N-βA-(D)R-(D)W-MLV-(D)Y-RR-CONH2] (H-[βAla][dR][dW]MLV[dY]RR-NH2)	81.52 ± 5.47 (b) %
H2N-βA-RWM-hL-VYRR-CONH2 (H-[βAla]RWMXVYRR-NH2; not fully specified (residue 5); printed as H2N-βA-RWM-hL-VYRR-CONH2) [LR193, hydrazino-Leu analogue]	79.35 ± 5.47 (b) %

same assay, conditions: 200 µM; P. infestans mycelium; solid medium; linear vs cyclic peptides (Figure 8)

Compound	PPI [%]
CSCC[C@H](NC(=O)[C@H](Cc1c[nH]c2ccccc12)NC(=O)[C@H](CCCNC(=N)N)NC(=O)CCN)C(=O)N[C@@H](CC(C)C)C(=O)N[C@H](C(=O)N[C@@H](Cc1ccc(O)cc1)C(=O)N[C@@H](CCCNC(=N)N)C(=O)N[C@@H](CCCNC(=N)N)C(N)=O)C(C)C [LP20] (H-[βAla]RWMLVYRR-NH2)	72.78
CC(C)C[C@H](NC(=O)[C@H](CCCNC(=N)N)NC(=O)CNC(=O)CCN)C(=O)N[C@@H](CCCNC(=N)N)C(=O)N[C@@H](Cc1c[nH]c2ccccc12)C(=O)N[C@@H](CC(C)C)C(=O)N[C@@H](CCCNC(=N)N)C(=O)N[C@H](C(N)=O)C(C)C [LP32] (H-[βAla]GRLRWLRV-NH2)	76.97

same assay, conditions: Ala-scan of Ac-LP20 and CP20-Met-Ala; P. infestans mycelium in vitro

Compound	PPI (%) mycelium [%]
CSCC[C@H](NC(=O)[C@H](Cc1c[nH]c2ccccc12)NC(=O)[C@H](C)NC(=O)CCNC(C)=O)C(=O)N[C@@H](CC(C)C)C(=O)N[C@H](C(=O)N[C@@H](Cc1ccc(O)cc1)C(=O)N[C@@H](CCCNC(=N)N)C(=O)N[C@@H](CCCNC(=N)N)C(N)=O)C(C)C [Ac-LP20-Ala2, Ac-βA-AWMLVYRR-CONH2] (Ac-[βAla]AWMLVYRR-NH2)	38.75 ± 7.72
CSCC[C@H](NC(=O)[C@H](C)NC(=O)[C@H](CCCNC(=N)N)NC(=O)CCNC(C)=O)C(=O)N[C@@H](CC(C)C)C(=O)N[C@H](C(=O)N[C@@H](Cc1ccc(O)cc1)C(=O)N[C@@H](CCCNC(=N)N)C(=O)N[C@@H](CCCNC(=N)N)C(N)=O)C(C)C [Ac-LP20-Ala3, Ac-βA-RAMLVYRR-CONH2] (Ac-[βAla]RAMLVYRR-NH2)	100 ± 0
CSCC[C@H](NC(=O)[C@H](Cc1c[nH]c2ccccc12)NC(=O)[C@H](CCCNC(=N)N)NC(=O)CCNC(C)=O)C(=O)N[C@@H](C)C(=O)N[C@H](C(=O)N[C@@H](Cc1ccc(O)cc1)C(=O)N[C@@H](CCCNC(=N)N)C(=O)N[C@@H](CCCNC(=N)N)C(N)=O)C(C)C [Ac-LP20-Ala5, Ac-βA-RWMAVYRR-CONH2] (Ac-[βAla]RWMAVYRR-NH2)	70.73 ± 0
CSCC[C@H](NC(=O)[C@H](Cc1c[nH]c2ccccc12)NC(=O)[C@H](CCCNC(=N)N)NC(=O)CCNC(C)=O)C(=O)N[C@@H](CC(C)C)C(=O)N[C@@H](C)C(=O)N[C@@H](Cc1ccc(O)cc1)C(=O)N[C@@H](CCCNC(=N)N)C(=O)N[C@@H](CCCNC(=N)N)C(N)=O [Ac-LP20-Ala6, Ac-βA-RWMLAYRR-CONH2] (Ac-[βAla]RWMLAYRR-NH2)	62.2 ± 7.54
CSCC[C@H](NC(=O)[C@H](Cc1c[nH]c2ccccc12)NC(=O)[C@H](CCCNC(=N)N)NC(=O)CCNC(C)=O)C(=O)N[C@@H](CC(C)C)C(=O)N[C@H](C(=O)N[C@@H](C)C(=O)N[C@@H](CCCNC(=N)N)C(=O)N[C@@H](CCCNC(=N)N)C(N)=O)C(C)C [Ac-LP20-Ala7, Ac-βA-RWMLVARR-CONH2] (Ac-[βAla]RWMLVARR-NH2)	17.48 ± 12.34
CSCC[C@H](NC(=O)[C@H](Cc1c[nH]c2ccccc12)NC(=O)[C@H](CCCNC(=N)N)NC(=O)CCNC(C)=O)C(=O)N[C@@H](CC(C)C)C(=O)N[C@H](C(=O)N[C@@H](Cc1ccc(O)cc1)C(=O)N[C@@H](C)C(=O)N[C@@H](CCCNC(=N)N)C(N)=O)C(C)C [Ac-LP20-Ala8, Ac-βA-RWMLVYAR-CONH2] (Ac-[βAla]RWMLVYAR-NH2)	10.57 ± 9.49
CSCC[C@H](NC(=O)[C@H](Cc1c[nH]c2ccccc12)NC(=O)[C@H](CCCNC(=N)N)NC(=O)CCNC(C)=O)C(=O)N[C@@H](CC(C)C)C(=O)N[C@H](C(=O)N[C@@H](Cc1ccc(O)cc1)C(=O)N[C@@H](CCCNC(=N)N)C(=O)N[C@@H](C)C(N)=O)C(C)C [Ac-LP20-Ala9, Ac-βA-RWMLVYRA-CONH2] (Ac-[βAla]RWMLVYRA-NH2)	10.57 ± 9.49

same assay, conditions: Ala-scan of Ac-LP32; P. infestans mycelium in vitro

Compound	PPI (%) micelio [%]
CC(=O)NCCC(=O)N[C@@H](C)C(=O)N[C@@H](CCCNC(=N)N)C(=O)N[C@@H](CC(C)C)C(=O)N[C@@H](CCCNC(=N)N)C(=O)N[C@@H](Cc1c[nH]c2ccccc12)C(=O)N[C@@H](CC(C)C)C(=O)N[C@@H](CCCNC(=N)N)C(=O)N[C@H](C(N)=O)C(C)C [Ac-LP32-Ala2, Ac-βA-ARLRWLRV-CONH2] (Ac-[βAla]ARLRWLRV-NH2)	74.81 ± 3.63
CC(=O)NCCC(=O)NCC(=O)N[C@@H](C)C(=O)N[C@@H](CC(C)C)C(=O)N[C@@H](CCCNC(=N)N)C(=O)N[C@@H](Cc1c[nH]c2ccccc12)C(=O)N[C@@H](CC(C)C)C(=O)N[C@@H](CCCNC(=N)N)C(=O)N[C@H](C(N)=O)C(C)C [Ac-LP32-Ala3, Ac-βA-GALRWLRV-CONH2] (Ac-[βAla]GALRWLRV-NH2)	58.78 ± 3.94
CC(=O)NCCC(=O)NCC(=O)N[C@@H](CCCNC(=N)N)C(=O)N[C@@H](C)C(=O)N[C@@H](CCCNC(=N)N)C(=O)N[C@@H](Cc1c[nH]c2ccccc12)C(=O)N[C@@H](CC(C)C)C(=O)N[C@@H](CCCNC(=N)N)C(=O)N[C@H](C(N)=O)C(C)C [Ac-LP32-Ala4, Ac-βA-GRARWLRV-CONH2] (Ac-[βAla]GRARWLRV-NH2)	56.49 ± 10.10
CC(=O)NCCC(=O)NCC(=O)N[C@@H](CCCNC(=N)N)C(=O)N[C@@H](CC(C)C)C(=O)N[C@@H](C)C(=O)N[C@@H](Cc1c[nH]c2ccccc12)C(=O)N[C@@H](CC(C)C)C(=O)N[C@@H](CCCNC(=N)N)C(=O)N[C@H](C(N)=O)C(C)C [Ac-LP32-Ala5, Ac-βA-GRLAWLRV-CONH2] (Ac-[βAla]GRLAWLRV-NH2)	40.46 ± 1.76
CC(=O)NCCC(=O)NCC(=O)N[C@@H](CCCNC(=N)N)C(=O)N[C@@H](CC(C)C)C(=O)N[C@@H](CCCNC(=N)N)C(=O)N[C@@H](C)C(=O)N[C@@H](CC(C)C)C(=O)N[C@@H](CCCNC(=N)N)C(=O)N[C@H](C(N)=O)C(C)C [Ac-LP32-Ala6, Ac-βA-GRLRALRV-CONH2] (Ac-[βAla]GRLRALRV-NH2)	54.20 ± 4.31
CC(=O)NCCC(=O)NCC(=O)N[C@@H](CCCNC(=N)N)C(=O)N[C@@H](CC(C)C)C(=O)N[C@@H](CCCNC(=N)N)C(=O)N[C@@H](Cc1c[nH]c2ccccc12)C(=O)N[C@@H](C)C(=O)N[C@@H](CCCNC(=N)N)C(=O)N[C@H](C(N)=O)C(C)C [Ac-LP32-Ala7, Ac-βA-GRLRWARV-CONH2] (Ac-[βAla]GRLRWARV-NH2)	59.29 ± 7.05
CC(=O)NCCC(=O)NCC(=O)N[C@@H](CCCNC(=N)N)C(=O)N[C@@H](CC(C)C)C(=O)N[C@@H](CCCNC(=N)N)C(=O)N[C@@H](Cc1c[nH]c2ccccc12)C(=O)N[C@@H](CC(C)C)C(=O)N[C@@H](C)C(=O)N[C@H](C(N)=O)C(C)C [Ac-LP32-Ala8, Ac-βA-GRLRWLAV-CONH2] (Ac-[βAla]GRLRWLAV-NH2)	17.56 ± 7.48
CC(=O)NCCC(=O)NCC(=O)N[C@@H](CCCNC(=N)N)C(=O)N[C@@H](CC(C)C)C(=O)N[C@@H](CCCNC(=N)N)C(=O)N[C@@H](Cc1c[nH]c2ccccc12)C(=O)N[C@@H](CC(C)C)C(=O)N[C@@H](CCCNC(=N)N)C(=O)N[C@@H](C)C(N)=O [Ac-LP32-Ala9, Ac-βA-GRLRWLRA-CONH2] (Ac-[βAla]GRLRWLRA-NH2)	19.85 ± 2.92

tested on: pronase; assay: Stability towards proteolysis (pronase, LC-MS); type: in vitro ADME, Streptomyces griseus; settings: peptide 200 µM; protease 5 µg/mL; 37°C; pH 7.5
Procedure: The evaluation of the stability of CP20 and Ac-LP20 towards proteolysis was tested at a peptide concentration of 200 µM using pronase (commercially available mixture of proteases isolated from the extracellular fluid of Streptomyces griseus, 2.5 µg/mg). Another peptide was added to this analysis, namely LP20 (without N-terminal acetylation), as it is easier to synthesize and to also assess the influence of N-terminal acetylation on the stability of LP20. Each peptide was tested in the presence of the protease (5 µg/mL) at 37°C in a buffer solution (50 mM Tris, 10 mM CaCl2, 150 mM NaCl, 0.05 % (w/v) Brij 35, pH 7.5) and its stability monitored by liquid chromatography coupled to mass spectrometry (LC-MS) at different time intervals (t=0 min, 10 min, 30 min, 1 h, 2 h). To stop enzyme activity, a small amount of the solution (60 µL) was transferred to an HPLC vial containing 6 µL of a 10% TFA solution at these different time points.

Compound	time of total proteolysis of the peptide [min]
CSCC[C@H](NC(=O)[C@H](Cc1c[nH]c2ccccc12)NC(=O)[C@H](CCCNC(=N)N)NC(=O)CCN)C(=O)N[C@@H](CC(C)C)C(=O)N[C@H](C(=O)N[C@@H](Cc1ccc(O)cc1)C(=O)N[C@@H](CCCNC(=N)N)C(=O)N[C@@H](CCCNC(=N)N)C(N)=O)C(C)C [LP20] (H-[βAla]RWMLVYRR-NH2)	10
CC(C)C[C@H](NC(=O)[C@H](CCCNC(=N)N)NC(=O)CNC(=O)CCN)C(=O)N[C@@H](CCCNC(=N)N)C(=O)N[C@@H](Cc1c[nH]c2ccccc12)C(=O)N[C@@H](CC(C)C)C(=O)N[C@@H](CCCNC(=N)N)C(=O)N[C@H](C(N)=O)C(C)C [LP32] (H-[βAla]GRLRWLRV-NH2)	10

same assay, conditions: peptide 200 µM; protease 5 µg/mL; 37°C; pH 7.5; 0-2 h

Compound	stability against proteolysis
CSCC[C@H](NC(=O)[C@H](Cc1c[nH]c2ccccc12)NC(=O)[C@H](CCCNC(=N)N)NC(=O)CCN)C(=O)N[C@@H](CC(C)C)C(=O)N[C@H](C(=O)N[C@@H](Cc1ccc(O)cc1)C(=O)N[C@@H](CCCNC(=N)N)C(=O)N[C@@H](CCCNC(=N)N)C(N)=O)C(C)C [LP20] (H-[βAla]RWMLVYRR-NH2)	Low stability
CC(C)C[C@H](NC(=O)[C@H](CCCNC(=N)N)NC(=O)CNC(=O)CCN)C(=O)N[C@@H](CCCNC(=N)N)C(=O)N[C@@H](Cc1c[nH]c2ccccc12)C(=O)N[C@@H](CC(C)C)C(=O)N[C@@H](CCCNC(=N)N)C(=O)N[C@H](C(N)=O)C(C)C [LP32] (H-[βAla]GRLRWLRV-NH2)	low stability

tested on: pronase; assay: pronase (commercially available mixture of proteases isolated from the extracellular fluid of Streptomyces griseus, 2.5 µg/mg) in buffer solution (50 mM Tris, 10 mM CaCl2, 150 mM NaCl, 0.05 % (w/v) Br); settings: 37°C, up to 2 h

Compound	cleaved bond
Ac-[βAla]GRLRWLRV-NH2	Trp-Leu7, 10 minutes later; also recorded: Leu4-Arg5, 10 min; also recorded: Arg5-Trp, 10 min; also recorded: Leu7-Arg8, 10 min; also recorded: Arg8-Val, 10 min
Ac-[βAla]RWMLVYRR-NH2	Met4-Leu, first_seen, t0; also recorded: Arg2-Trp3, 10 min; also recorded: Trp3-Met4, 10 min
